Measurements from PubChem BioAssay AID1963421 (Molecular Pharmacology Branch, DTP, NCI, 2024).

Test system: 519858-162-T-J1-PDC complex spheroid growth, % test/control
Assay: Anticancer human tumor 519858-162-T-J1-PDC patient-derived colon adenocarcinoma cell line growth inhibition [Asc]
Conditions: for IC50: curve of first compound; for viability, T/C: stronger effect = lower value
In short: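 Stromal components (HUVEC and hMSC) are co-assembled with the cancer cells into multicellular spheroids. Drugs are then added singly or paired, at concentrations falling by half-log increments from a clinically achievable maximum, capped at 10 microM without known Cmax.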

[1] = second compound 0.00316 µM, first compound 0.0316 µM
[2] = second compound 0.00316 µM, first compound 0.1 µM
[3] = second compound 0.01 µM, first compound 0.0316 µM
[4] = second compound 0.01 µM, first compound 0.1 µM
[5] = second compound 0.0316 µM, first compound 0.0316 µM
[6] = second compound 0.0316 µM, first compound 0.1 µM
[7] = second compound 0.1 µM, first compound 0.0316 µM
[8] = second compound 0.1 µM, first compound 0.1 µM
[9] = second compound 0.316 µM, first compound 0.0316 µM
[10] = second compound 0.316 µM, first compound 0.1 µM
[11] = second compound 1 µM, first compound 0.0316 µM
[12] = second compound 1 µM, first compound 0.1 µM
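Further: seven day drug exposure begun three days after spheroid seeding.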
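Wherever viability, T/C is given: 100% = DMSO vehicle wells and lower values mean less viable spheroid.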

Cc1nc(N2CCC3(CC2)COC(C)C3N)c(CO)nc1Sc1ccnc(N)c1Cl (stereo unspecified) + CCN1C(C(=O)NC23CCC(C(=O)O)(CC2)CC3)C(c2cccc(Cl)c2F)C2(C(=O)Nc3cc(Cl)ccc32)C12CCCCC2
IC50 (second compound 0.00949 µM): 0.578 µM | IC50 (second compound 0.03 µM): > 3 µM | IC50 (second compound 0.0949 µM): > 3 µM | IC50 (second compound 0.3 µM): > 3 µM | IC50 (second compound 0.949 µM): > 3 µM | IC50 (second compound 3 µM): > 3 µM | viability, T/C (second compound 0.00949 µM, first compound 0.00949 µM): 87% | viability, T/C (second compound 0.00949 µM, first compound 0.03 µM): 91.7% | viability, T/C (second compound 0.00949 µM, first compound 0.0949 µM): 111% | viability, T/C (second compound 0.00949 µM, first compound 0.3 µM): 57.3% | viability, T/C (second compound 0.00949 µM, first compound 0.949 µM): 43.6% | viability, T/C (second compound 0.00949 µM, first compound 3 µM): 45.3% | viability, T/C (second compound 0.03 µM, first compound 0.00949 µM): 85.3% | viability, T/C (second compound 0.03 µM, first compound 0.03 µM): 67% | viability, T/C (second compound 0.03 µM, first compound 0.0949 µM): 101% | viability, T/C (second compound 0.03 µM, first compound 0.3 µM): 85.6% | viability, T/C (second compound 0.03 µM, first compound 0.949 µM): 96% | viability, T/C (second compound 0.03 µM, first compound 3 µM): 63.3% | viability, T/C (second compound 0.0949 µM, first compound 0.00949 µM): 63.2% | viability, T/C (second compound 0.0949 µM, first compound 0.03 µM): 110% | viability, T/C (second compound 0.0949 µM, first compound 0.0949 µM): 70.5% | viability, T/C (second compound 0.0949 µM, first compound 0.3 µM): 66.6% | viability, T/C (second compound 0.0949 µM, first compound 0.949 µM): 73.7% | viability, T/C (second compound 0.0949 µM, first compound 3 µM): 57.5% | viability, T/C (second compound 0.3 µM, first compound 0.00949 µM): 119% | viability, T/C (second compound 0.3 µM, first compound 0.03 µM): 71% | viability, T/C (second compound 0.3 µM, first compound 0.0949 µM): 54.5% | viability, T/C (second compound 0.3 µM, first compound 0.3 µM): 80.6% | viability, T/C (second compound 0.3 µM, first compound 0.949 µM): 47.6% | viability, T/C (second compound 0.3 µM, first compound 3 µM): 52.5% | viability, T/C (second compound 0.949 µM, first compound 0.00949 µM): 67.6% | viability, T/C (second compound 0.949 µM, first compound 0.03 µM): 66.8% | viability, T/C (second compound 0.949 µM, first compound 0.0949 µM): 83.1% | viability, T/C (second compound 0.949 µM, first compound 0.3 µM): 47.4% | viability, T/C (second compound 0.949 µM, first compound 0.949 µM): 73.5% | viability, T/C (second compound 0.949 µM, first compound 3 µM): 59.2% | viability, T/C (second compound 3 µM, first compound 0.00949 µM): 69.5% | viability, T/C (second compound 3 µM, first compound 0.03 µM): 92.5% | viability, T/C (second compound 3 µM, first compound 0.0949 µM): 77.2% | viability, T/C (second compound 3 µM, first compound 0.3 µM): 73.5% | viability, T/C (second compound 3 µM, first compound 0.949 µM): 67% | viability, T/C (second compound 3 µM, first compound 3 µM): 72.5%

Cn1ncnc1[C@H]1c2n[nH]c(=O)c3cc(F)cc(c23)N[C@@H]1c1ccc(F)cc1 + CNC(C)C(=O)NC1CN(S(=O)(=O)c2cccc(S(=O)(=O)N3CCC4CCC(C(=O)NC(c5ccccc5)c5ccccc5)N4C(=O)C(NC(=O)C(C)NC)C3)c2)CCC2CCC(C(=O)NC(c3ccccc3)c3ccccc3)N2C1=O
IC50 (second compound 0.00316 µM): > 0.1 µM | IC50 (second compound 0.01 µM): > 0.1 µM | IC50 (second compound 0.0316 µM): > 0.1 µM | IC50 (second compound 0.1 µM): > 0.1 µM | IC50 (second compound 0.316 µM): > 0.1 µM | IC50 (second compound 1 µM): > 0.1 µM | viability, T/C (second compound 0.00316 µM, first compound 0.000316 µM): 71.1% | viability, T/C (second compound 0.00316 µM, first compound 0.001 µM): 64.9% | viability, T/C (second compound 0.00316 µM, first compound 0.00316 µM): 59.8% | viability, T/C (second compound 0.00316 µM, first compound 0.01 µM): 62.1% | viability, T/C [1]: 60.9% | viability, T/C [2]: 69.1% | viability, T/C (second compound 0.01 µM, first compound 0.000316 µM): 94.7% | viability, T/C (second compound 0.01 µM, first compound 0.001 µM): 94.5% | viability, T/C (second compound 0.01 µM, first compound 0.00316 µM): 113% | viability, T/C (second compound 0.01 µM, first compound 0.01 µM): 86.8% | viability, T/C [3]: 103% | viability, T/C [4]: 78.4% | viability, T/C (second compound 0.0316 µM, first compound 0.000316 µM): 103% | viability, T/C (second compound 0.0316 µM, first compound 0.001 µM): 83% | viability, T/C (second compound 0.0316 µM, first compound 0.00316 µM): 90.3% | viability, T/C (second compound 0.0316 µM, first compound 0.01 µM): 87.5% | viability, T/C [5]: 102% | viability, T/C [6]: 77.6% | viability, T/C (second compound 0.1 µM, first compound 0.000316 µM): 70.6% | viability, T/C (second compound 0.1 µM, first compound 0.001 µM): 78.3% | viability, T/C (second compound 0.1 µM, first compound 0.00316 µM): 83.4% | viability, T/C (second compound 0.1 µM, first compound 0.01 µM): 107% | viability, T/C [7]: 80.9% | viability, T/C [8]: 97.5% | viability, T/C (second compound 0.316 µM, first compound 0.000316 µM): 83.7% | viability, T/C (second compound 0.316 µM, first compound 0.001 µM): 99.3% | viability, T/C (second compound 0.316 µM, first compound 0.00316 µM): 89.4% | viability, T/C (second compound 0.316 µM, first compound 0.01 µM): 97% | viability, T/C [9]: 64.3% | viability, T/C [10]: 83.6% | viability, T/C (second compound 1 µM, first compound 0.000316 µM): 92.6% | viability, T/C (second compound 1 µM, first compound 0.001 µM): 76.3% | viability, T/C (second compound 1 µM, first compound 0.00316 µM): 83.3% | viability, T/C (second compound 1 µM, first compound 0.01 µM): 71.3% | viability, T/C [11]: 90.6% | viability, T/C [12]: 78.1%

O=C(c1cc(Cc2n[nH]c(=O)c3ccccc23)ccc1F)N1CCN(C(=O)C2CC2)CC1 + CNC(C)C(=O)NC1CN(S(=O)(=O)c2cccc(S(=O)(=O)N3CCC4CCC(C(=O)NC(c5ccccc5)c5ccccc5)N4C(=O)C(NC(=O)C(C)NC)C3)c2)CCC2CCC(C(=O)NC(c3ccccc3)c3ccccc3)N2C1=O
IC50 (second compound 0.00316 µM): > 10 µM | IC50 (second compound 0.01 µM): > 10 µM | IC50 (second compound 0.0316 µM): > 10 µM | IC50 (second compound 0.1 µM): > 10 µM | IC50 (second compound 0.316 µM): > 10 µM | IC50 (second compound 1 µM): > 10 µM | viability, T/C [1]: 61.5% | viability, T/C [2]: 57.1% | viability, T/C (second compound 0.00316 µM, first compound 0.316 µM): 55% | viability, T/C (second compound 0.00316 µM, first compound 1 µM): 66.5% | viability, T/C (second compound 0.00316 µM, first compound 3.16 µM): 72.8% | viability, T/C (second compound 0.00316 µM, first compound 10 µM): 65.1% | viability, T/C [3]: 127% | viability, T/C [4]: 98.8% | viability, T/C (second compound 0.01 µM, first compound 0.316 µM): 103% | viability, T/C (second compound 0.01 µM, first compound 1 µM): 89.4% | viability, T/C (second compound 0.01 µM, first compound 3.16 µM): 114% | viability, T/C (second compound 0.01 µM, first compound 10 µM): 87% | viability, T/C [5]: 96.9% | viability, T/C [6]: 73.4% | viability, T/C (second compound 0.0316 µM, first compound 0.316 µM): 91.3% | viability, T/C (second compound 0.0316 µM, first compound 1 µM): 91.1% | viability, T/C (second compound 0.0316 µM, first compound 3.16 µM): 84.5% | viability, T/C (second compound 0.0316 µM, first compound 10 µM): 88.3% | viability, T/C [7]: 97.9% | viability, T/C [8]: 83.2% | viability, T/C (second compound 0.1 µM, first compound 0.316 µM): 89.7% | viability, T/C (second compound 0.1 µM, first compound 1 µM): 84.9% | viability, T/C (second compound 0.1 µM, first compound 3.16 µM): 94.4% | viability, T/C (second compound 0.1 µM, first compound 10 µM): 76.4% | viability, T/C [9]: 68.4% | viability, T/C [10]: 86.6% | viability, T/C (second compound 0.316 µM, first compound 0.316 µM): 117% | viability, T/C (second compound 0.316 µM, first compound 1 µM): 97.7% | viability, T/C (second compound 0.316 µM, first compound 3.16 µM): 100% | viability, T/C (second compound 0.316 µM, first compound 10 µM): 95% | viability, T/C [11]: 80.7% | viability, T/C [12]: 84.9% | viability, T/C (second compound 1 µM, first compound 0.316 µM): 106% | viability, T/C (second compound 1 µM, first compound 1 µM): 99.3% | viability, T/C (second compound 1 µM, first compound 3.16 µM): 78.1% | viability, T/C (second compound 1 µM, first compound 10 µM): 95.3%
